Laboratory results: US20230257398A1, “PYRIMIDINE-BASED TRICYCLIC COMPOUND AND USE THEREOF” (Chia Tai Tianqing Pharmaceutical Group Co., Ltd., priority 2020, published 2023)

Target: T1, sGC (Homo sapiens, UniProt Q02108+Q02153)
T1 construct: Preparation of LNCap Cells; endogenous in cells; host or cells: LNCaP cells (14th generation), no transfection described
T1 sequence (Q02153 1-619): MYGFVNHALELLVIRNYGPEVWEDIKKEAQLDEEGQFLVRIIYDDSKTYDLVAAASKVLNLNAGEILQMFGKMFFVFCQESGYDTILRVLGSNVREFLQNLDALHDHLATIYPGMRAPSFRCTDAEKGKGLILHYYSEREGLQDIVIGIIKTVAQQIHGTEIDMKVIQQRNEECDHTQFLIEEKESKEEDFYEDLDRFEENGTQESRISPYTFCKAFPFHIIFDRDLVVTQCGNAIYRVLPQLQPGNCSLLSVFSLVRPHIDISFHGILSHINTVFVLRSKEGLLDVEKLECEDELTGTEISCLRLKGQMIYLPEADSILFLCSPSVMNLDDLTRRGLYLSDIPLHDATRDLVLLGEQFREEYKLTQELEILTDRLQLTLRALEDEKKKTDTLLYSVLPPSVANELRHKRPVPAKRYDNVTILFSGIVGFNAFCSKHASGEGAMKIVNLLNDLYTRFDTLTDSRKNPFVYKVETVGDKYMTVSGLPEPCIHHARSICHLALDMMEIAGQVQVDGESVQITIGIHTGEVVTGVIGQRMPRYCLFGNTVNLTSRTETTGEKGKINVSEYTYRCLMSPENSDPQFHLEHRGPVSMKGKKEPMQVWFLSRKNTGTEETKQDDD
T1 sequence (Q02108 1-690): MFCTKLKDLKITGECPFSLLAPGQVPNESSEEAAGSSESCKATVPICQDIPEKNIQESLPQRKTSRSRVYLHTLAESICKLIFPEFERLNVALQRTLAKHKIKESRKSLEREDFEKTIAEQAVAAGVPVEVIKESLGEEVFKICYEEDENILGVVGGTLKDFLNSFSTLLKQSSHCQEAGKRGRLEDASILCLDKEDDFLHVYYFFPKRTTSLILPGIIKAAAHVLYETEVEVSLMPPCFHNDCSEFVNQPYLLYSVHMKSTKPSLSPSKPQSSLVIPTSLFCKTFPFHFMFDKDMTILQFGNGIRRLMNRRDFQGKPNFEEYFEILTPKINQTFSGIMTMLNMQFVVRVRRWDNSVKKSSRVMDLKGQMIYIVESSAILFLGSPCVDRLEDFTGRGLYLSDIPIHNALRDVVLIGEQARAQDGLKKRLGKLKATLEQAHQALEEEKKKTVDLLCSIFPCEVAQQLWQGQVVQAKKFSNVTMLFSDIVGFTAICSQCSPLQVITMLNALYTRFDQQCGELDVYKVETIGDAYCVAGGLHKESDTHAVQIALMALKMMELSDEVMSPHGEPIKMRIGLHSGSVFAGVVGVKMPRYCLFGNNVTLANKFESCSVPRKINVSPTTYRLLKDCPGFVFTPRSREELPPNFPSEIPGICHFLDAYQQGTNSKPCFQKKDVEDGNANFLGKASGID
Assay: lnCap cell-based cGMP expression assay (stimulating activity for sGC)
Details: with DETA-NO, 37° C. 30 min, HTRF cGMP
Method: I. lnCap Cell-Based cGMP Expression Assay
1) Preparation of Solutions
10% BSA (Bovine Serum Albumin)
10 g of BSA was dissolved in 100 mL of double distilled water (ddH2O) to give 10% BSA.
5 mM DETA (Diethylenetriamine)-NO
10 mg of DETA-NO was weighed out and dissolved in 12.2 mL of double distilled water (ddH2O) to give 5 mM DETA-NO, which was aliquoted and cryopreserved in a freezer at −20° C.
a) To 1 mL of a lysis buffer was added 50 μL of cGMP-D2 (D2-labeled cyclic guanosine monophosphate), and the mixture was well mixed.
b) To 1 mL of a lysis buffer was added 50 μL of anti-cGMP cryptate (Eu^3+ cryptate-labeled anti-cyclic guanosine monophosphate antibody), and the mixture was well mixed.
(1) The compounds were diluted to 5 mM with DMSO. 10 μL of each of the compounds was transferred to a shallow well plate for Echo.
(2) The compounds were gradiently diluted with Echo. Each of the compounds was diluted to obtain 10 concentration gradients, and 50 nL of each of the concentration gradients was added to a 384 microwell plate.
3) Preparation of LNCap Cells
(1) LNCap medium: RPMI1640+10% fetal bovine serum+1% […].
(2) Phosphate buffered saline, pancreatin and the medium used in the process of cell passaging were pre-heated in a water bath at 37° C.
(3) The cells (the 14th generation) were taken out of the 37° C., 5% CO2 incubator, and the old medium was pipetted off the culture flask.
(4) 5 mL of phosphate buffered saline was pipetted into the culture flask to rinse the cells, and then the liquid was discarded.
(5) 3 mL of pancreatin was pipetted into the culture flask. After the culture flask was shaken, the liquid was discarded, and the culture flask was placed in the incubator.
(6) After about 2 min the culture flask was taken out. […] The cell suspension was transferred to a 50 mL centrifuge tube.
(7) 0.7 mL of the cell suspension was pipetted into a counter cup and the cells were counted on a ViCell XR. The remaining cells were centrifuged at 1000 rpm for 5 min, and the supernatant was removed.
(8) The cells were washed by adding 10 mL of the washing buffer and centrifuged at 1000 rpm for 5 min, and the supernatant was removed.
(9) The assay buffer was added to adjust the cell concentration to 1.25×10^6/mL. The cells were added to the microwell plate at 8 μL/well.
4) Formulation and Addition of DETA-NO
(1) 10 μL of 5 mM DETA-NO was added to 1240 μL of the assay buffer and to 1657 μL of the assay buffer to give 40 μM DETA-NO and 30 μM DETA-NO, respectively.
(2) DETA-NO was transferred to the 384 microwell plate at 2 μL/well using Bravo.
(3) The mixtures were centrifuged at 1500 rpm for 5 min. The microwell plate was incubated at 37° C. for 30 min.
5) Preparation of cGMP Standard Curve
(1) 1 mM of the cGMP stock solution was diluted to 10 μM with the assay buffer. Then 4-fold gradient dilution was performed to obtain 11 concentration gradients.
(2) The cGMP dilutions were added to the microwell plate at 10 μL/well.
6) Addition of Detection Reagents and Plate Reading
(1) cGMP-D2 was transferred to the 384 microwell plate at 5 μL/well using Bravo. The mixtures were centrifuged at 1500 rpm for 1 min.
(2) The anti-cGMP cryptate was transferred to the 384 microwell plate at 5 μL/well using Bravo. The mixtures were centrifuged at 1500 rpm for 1 min.
(3) The plate was incubated at room temperature for 1 h.
(4) 665/615 was read using envision.
(1) cGMP standard curve: a standard curve was generated using Graphpad prism based on the cGMP concentrations and 665/615 ratios.
(2) Conversion of HTRF (homogeneous time-resolved fluorescence) ratios (665/615) to cGMP concentrations: in Graphpad prism, the HTRF ratios (665/615) were copied into the ratio column of the cGMP standard curve, and the “Log inhibitor vs response-variable slope” analysis was run with “interpolate” selected to convert the HTRF ratios (665/615) to cGMP concentrations. […]

CCNC(=O)OC12CCOc3nc(-c4nn(Cc5ccccc5F)c5ncc(F)cc45)nc(c31)NC2=O (stereo not shown) [Compound 050]
MEC: minimum effective concentration to stimulate cGMP production (three times greater than the basal value) in lnCap cells: 231.7 nM
